Test: Blood loss after 3 mm tail transection (haemoglobin assay)
Conditions: mouse, in vivo, 10 mg/kg, 30 min
Description: “Blood loss” generally refers excessive bleeding or haemorrhage. Minor haemorrhage refers to clinically insignificant bleeding. Major haemorrhage refers to internal bleeding or when the individual loses sufficient amounts of blood to cause a haemodynamic instability. Blood loss may be measured clinically by measuring blood pressure, pulse rate, haemoglobin levels, urea levels in the blood, and/or by imaging. Indicators of major haemorrhage will be clear to a person skilled in the art. Blood loss may also be determined experimentally for example by measuring the total volume of blood collected from a mouse tail transection and may be quantified by measurement of haemoglobin (mg/dL) present in the total volume of blood lost during a specified observation period (for example 20 minutes). Total haemoglobin may be assessed via a commercially available Haemoglobin colorimetric assay kit (Cat #MAK115; Sigma-Aldrich).
Blood loss was assessed by carrying out a 3 mm tail transection (lop) in rodents, to assess blood loss following compound/drug administration. Tail lop was performed using a standard transection 3 mm from the tip of the tail (Schoenwaelder et al, 2011, Blood). The tail was immediately immersed in pre-warmed sterile saline (37° C.) and time to bleeding cessation and rebleeding events monitored for 30 minutes following transection. […]

- blood loss (haemoglobin): over 2000 mg/dL
Compound: CC1CNc2c(cccc2S(=O)(=O)N[C@@H](CCCNC(=N)N)C(=O)N2CC[C@@H](C)C[C@@H]2C(=O)O)C1 (stereo partly shown) [argatroban]

Source: patent publication US20230416341A1, “IMPROVED THROMBIN INHIBITORS FOR TREATMENT OF THROMBOEMBOLIC CONDITIONS” (priority 2020, published 2023)
